Data as given in the Kinase Knowledgebase extract (Sharma et al. 2016).

Tests used:
Assay in all cases: Enzyme Assay
PIK3CB (Human) = PIK3CB (Human) (UniProt P42338)
PIK3CA (human) = PIK3CA (human) (UniProt P42336)
PIK3CD (Human) = PIK3CD (Human) (UniProt O00329)
PIK3CG (human) = PIK3CG (human) (UniProt P48736)
Chain of PIK3CG (human) (P48736 whole entry, looked up): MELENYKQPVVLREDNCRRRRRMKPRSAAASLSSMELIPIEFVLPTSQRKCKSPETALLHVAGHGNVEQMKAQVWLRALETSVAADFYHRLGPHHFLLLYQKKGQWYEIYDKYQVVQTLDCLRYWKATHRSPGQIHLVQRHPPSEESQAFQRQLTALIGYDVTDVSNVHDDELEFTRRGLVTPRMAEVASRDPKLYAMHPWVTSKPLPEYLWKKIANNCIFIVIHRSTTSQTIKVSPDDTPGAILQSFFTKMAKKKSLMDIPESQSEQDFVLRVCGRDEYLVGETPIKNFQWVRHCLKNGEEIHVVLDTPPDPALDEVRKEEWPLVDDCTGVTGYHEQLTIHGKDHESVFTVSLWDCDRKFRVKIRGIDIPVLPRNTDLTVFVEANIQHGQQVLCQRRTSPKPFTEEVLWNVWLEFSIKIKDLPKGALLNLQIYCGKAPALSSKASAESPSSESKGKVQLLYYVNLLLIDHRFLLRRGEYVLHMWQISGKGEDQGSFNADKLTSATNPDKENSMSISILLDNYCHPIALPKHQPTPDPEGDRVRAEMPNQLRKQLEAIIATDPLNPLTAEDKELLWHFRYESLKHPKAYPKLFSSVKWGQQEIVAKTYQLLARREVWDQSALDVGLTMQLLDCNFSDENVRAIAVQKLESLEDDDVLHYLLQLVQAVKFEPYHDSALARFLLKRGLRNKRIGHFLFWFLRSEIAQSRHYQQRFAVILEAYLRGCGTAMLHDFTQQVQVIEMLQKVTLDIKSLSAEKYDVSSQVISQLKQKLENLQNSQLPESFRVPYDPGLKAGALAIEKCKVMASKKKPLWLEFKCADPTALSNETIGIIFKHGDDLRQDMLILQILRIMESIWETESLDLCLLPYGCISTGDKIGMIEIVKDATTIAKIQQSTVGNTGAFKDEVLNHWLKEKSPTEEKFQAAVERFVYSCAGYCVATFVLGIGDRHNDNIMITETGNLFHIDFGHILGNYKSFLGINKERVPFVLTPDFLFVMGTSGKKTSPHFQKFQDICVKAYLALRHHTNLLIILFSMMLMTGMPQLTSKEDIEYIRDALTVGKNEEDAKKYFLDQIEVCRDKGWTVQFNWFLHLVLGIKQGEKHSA

Chain of PIK3CD (Human) (O00329 whole entry, looked up): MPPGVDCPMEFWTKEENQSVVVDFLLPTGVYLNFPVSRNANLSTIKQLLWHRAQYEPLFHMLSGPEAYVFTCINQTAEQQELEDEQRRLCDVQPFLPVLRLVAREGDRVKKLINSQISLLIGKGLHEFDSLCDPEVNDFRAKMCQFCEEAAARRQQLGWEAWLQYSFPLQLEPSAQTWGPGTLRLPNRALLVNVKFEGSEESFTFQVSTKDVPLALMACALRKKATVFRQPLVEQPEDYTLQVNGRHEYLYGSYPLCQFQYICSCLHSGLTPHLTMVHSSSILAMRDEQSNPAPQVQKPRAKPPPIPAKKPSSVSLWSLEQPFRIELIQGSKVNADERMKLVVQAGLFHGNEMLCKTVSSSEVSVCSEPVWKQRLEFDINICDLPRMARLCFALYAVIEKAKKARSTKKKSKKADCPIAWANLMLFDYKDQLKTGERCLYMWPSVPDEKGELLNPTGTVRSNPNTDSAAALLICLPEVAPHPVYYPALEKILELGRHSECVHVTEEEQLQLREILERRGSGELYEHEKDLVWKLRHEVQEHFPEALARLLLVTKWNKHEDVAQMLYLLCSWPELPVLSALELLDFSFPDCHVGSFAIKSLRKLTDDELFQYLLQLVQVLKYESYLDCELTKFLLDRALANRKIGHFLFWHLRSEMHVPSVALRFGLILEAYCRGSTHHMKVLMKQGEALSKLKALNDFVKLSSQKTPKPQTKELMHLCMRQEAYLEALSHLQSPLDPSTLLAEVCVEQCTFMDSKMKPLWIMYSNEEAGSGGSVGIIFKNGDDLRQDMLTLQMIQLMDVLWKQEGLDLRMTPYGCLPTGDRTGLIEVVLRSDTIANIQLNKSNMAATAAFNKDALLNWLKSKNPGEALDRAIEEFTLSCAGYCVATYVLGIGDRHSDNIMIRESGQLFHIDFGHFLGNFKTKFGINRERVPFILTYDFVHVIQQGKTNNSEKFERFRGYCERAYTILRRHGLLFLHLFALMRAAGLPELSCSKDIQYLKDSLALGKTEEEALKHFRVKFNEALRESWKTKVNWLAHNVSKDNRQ
Chain of PIK3CA (human) (P42336 whole entry, looked up): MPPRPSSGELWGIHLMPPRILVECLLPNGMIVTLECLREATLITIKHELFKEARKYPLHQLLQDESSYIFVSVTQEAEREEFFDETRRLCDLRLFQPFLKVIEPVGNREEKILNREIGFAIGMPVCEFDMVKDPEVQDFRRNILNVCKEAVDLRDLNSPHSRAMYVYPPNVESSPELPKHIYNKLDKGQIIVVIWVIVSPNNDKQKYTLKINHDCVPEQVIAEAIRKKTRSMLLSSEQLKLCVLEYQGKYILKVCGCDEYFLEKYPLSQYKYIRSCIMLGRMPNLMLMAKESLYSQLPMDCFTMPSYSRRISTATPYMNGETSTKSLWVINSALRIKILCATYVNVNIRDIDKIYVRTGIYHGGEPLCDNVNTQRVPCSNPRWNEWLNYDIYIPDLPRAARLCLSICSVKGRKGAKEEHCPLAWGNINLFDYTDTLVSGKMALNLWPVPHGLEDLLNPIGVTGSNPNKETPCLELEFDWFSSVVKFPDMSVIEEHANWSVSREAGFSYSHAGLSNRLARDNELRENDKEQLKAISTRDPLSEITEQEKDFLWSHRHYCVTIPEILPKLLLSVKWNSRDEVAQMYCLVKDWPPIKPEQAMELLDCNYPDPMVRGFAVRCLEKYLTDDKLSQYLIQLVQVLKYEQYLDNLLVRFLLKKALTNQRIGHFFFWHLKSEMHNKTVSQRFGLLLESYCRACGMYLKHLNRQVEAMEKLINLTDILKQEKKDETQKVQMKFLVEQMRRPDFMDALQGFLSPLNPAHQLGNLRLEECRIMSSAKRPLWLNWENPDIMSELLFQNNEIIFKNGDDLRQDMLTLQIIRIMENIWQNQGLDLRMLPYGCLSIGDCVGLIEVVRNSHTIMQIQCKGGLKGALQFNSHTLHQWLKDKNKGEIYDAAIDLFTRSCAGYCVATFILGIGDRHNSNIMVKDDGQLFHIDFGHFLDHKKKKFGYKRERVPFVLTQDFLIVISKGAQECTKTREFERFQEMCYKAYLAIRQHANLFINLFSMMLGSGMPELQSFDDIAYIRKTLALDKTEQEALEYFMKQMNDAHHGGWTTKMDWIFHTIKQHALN
Chain of PIK3CB (Human) (P42338 whole entry, looked up): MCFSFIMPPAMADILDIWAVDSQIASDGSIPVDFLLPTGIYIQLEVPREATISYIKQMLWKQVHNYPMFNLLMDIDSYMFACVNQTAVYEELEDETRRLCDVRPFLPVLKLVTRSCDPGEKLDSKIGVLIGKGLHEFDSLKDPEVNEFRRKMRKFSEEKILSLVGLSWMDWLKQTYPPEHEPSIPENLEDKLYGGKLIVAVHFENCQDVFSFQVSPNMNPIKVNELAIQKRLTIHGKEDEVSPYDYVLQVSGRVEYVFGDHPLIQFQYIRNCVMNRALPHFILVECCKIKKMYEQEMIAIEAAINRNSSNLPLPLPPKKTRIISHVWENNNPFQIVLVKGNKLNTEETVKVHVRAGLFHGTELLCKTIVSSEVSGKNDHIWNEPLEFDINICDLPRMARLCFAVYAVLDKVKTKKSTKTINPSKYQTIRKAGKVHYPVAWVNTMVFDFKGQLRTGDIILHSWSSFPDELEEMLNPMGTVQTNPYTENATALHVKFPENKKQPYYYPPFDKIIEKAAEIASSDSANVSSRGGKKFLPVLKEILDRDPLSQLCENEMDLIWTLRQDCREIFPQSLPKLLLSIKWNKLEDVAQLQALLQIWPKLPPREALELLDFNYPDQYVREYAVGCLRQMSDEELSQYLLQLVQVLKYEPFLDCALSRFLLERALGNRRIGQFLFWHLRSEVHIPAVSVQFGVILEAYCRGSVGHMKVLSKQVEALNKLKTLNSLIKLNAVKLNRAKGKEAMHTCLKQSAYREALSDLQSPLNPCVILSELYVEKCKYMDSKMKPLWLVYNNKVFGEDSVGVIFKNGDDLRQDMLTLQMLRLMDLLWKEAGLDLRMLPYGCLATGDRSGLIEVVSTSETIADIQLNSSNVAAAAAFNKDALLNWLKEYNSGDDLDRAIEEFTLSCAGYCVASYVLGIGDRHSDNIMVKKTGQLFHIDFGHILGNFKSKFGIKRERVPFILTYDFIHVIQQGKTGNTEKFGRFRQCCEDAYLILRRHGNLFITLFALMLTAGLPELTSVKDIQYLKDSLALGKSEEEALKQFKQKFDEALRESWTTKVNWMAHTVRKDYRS

IC50 (PIK3CB (Human)) [µM]	IC50 (PIK3CA (human)) [µM]	IC50 (PIK3CD (Human)) [µM]	IC50 (PIK3CG (human)) [µM]	Ki (PIK3CD (Human)) [µM]	SMILES
12.6	> 25.1	0.158	10		O=C(Nc1cc(-c2cccc3[nH]ccc23)cc2[nH]ncc12)c1cscn1
6.31	> 25.1	0.398	2.51		Cc1csc(-c2cc(-c3cccc4[nH]ccc34)cc3[nH]ncc23)n1
6.31	10	0.251	3.98		Cc1cnc(-c2cc(-c3cccc4[nH]ccc34)cc3[nH]ncc23)s1
15.8	20	0.01	15.8		O=C(Nc1cc(-c2cccc3[nH]ccc23)cc2[nH]ncc12)c1csc(CN2CCCCC2)n1
> 25.1	> 25.1	1	20		CC(C)n1nccc1C(=O)Nc1cc(-c2cccc3[nH]ccc23)cc2[nH]ncc12
3.16	20	0.0158	0.794		Cc1cccc(C(=O)Nc2cc(-c3cccc4[nH]ccc34)cc3[nH]ncc23)n1
> 25.1	> 25.1	0.316	6.31		Cc1nc(C(=O)Nc2cc(-c3cccc4[nH]ncc34)cc3[nH]ncc23)cs1
3.16	> 25.1	0.1	1.26		Cc1nnc(-c2cc(-c3cccc4[nH]ccc34)cc3[nH]ncc23)o1
20	> 25.1	0.794	20		Cn1nccc1C(=O)Nc1cc(-c2cccc3[nH]ccc23)cc2[nH]ncc12
12.6	> 25.1	0.501	7.94		O=C(Nc1cc(-c2cccc3[nH]ccc23)cc2[nH]ncc12)c1csc(-c2ccccc2)n1
2.51	5.01	0.126	2		Cc1ccc(-c2cc(-c3cccc4[nH]ccc34)cc3[nH]ncc23)o1
7.94	10	0.00631	3.16		O=C(Nc1cc(-c2cccc3[nH]ccc23)cc2[nH]ncc12)c1csc(CN2CCOCC2)n1
12.6	> 25.1	0.0126	> 25.1		O=C(Nc1cc(-c2cccc3[nH]ccc23)cc2[nH]ncc12)c1cccc(CN2CCCCC2)n1
> 25.1	> 25.1	0.0794	12.6		O=C(Nc1cc(-c2cccc3[nH]ccc23)cc2[nH]ncc12)c1csc(Cc2ccccc2)n1
1.58	1.26	0.00316	3.98		CC(C)N1CCN(Cc2nc(C(=O)Nc3cc(-c4cccc5[nH]ccc45)cc4[nH]ncc34)cs2)CC1
5.01	7.94	0.00794	0.251		Cc1nc(C(=O)Nc2cc(-c3ccnc4[nH]ccc34)cc3[nH]ncc23)cs1
12.6	> 25.1	0.1	10		Cn1ccc(C(=O)Nc2cc(-c3cccc4[nH]ccc34)cc3[nH]ncc23)n1
> 25.1	> 25.1	5.01	> 25.1		Cc1nc(C(=O)Nc2cc(-c3cccc4c3ccn4C)cc3[nH]ncc23)cs1
1.26	10	0.0794	1.26		c1cc(-c2cc(-c3ncco3)c3cn[nH]c3c2)c2cc[nH]c2c1
6.31	10	0.1	6.31	0.0501	O=C(Nc1cc(-c2cccc3[nH]ccc23)cc2[nH]ncc12)c1ccccn1
10	> 25.1	0.0501	3.98		Cc1nc(C(=O)Nc2cc(-c3cccc4[nH]ccc34)cc3[nH]ncc23)cs1
> 25.1	> 25.1	15.8	> 25.1		CN(C(=O)c1ccccn1)c1cc(-c2cccc3[nH]ccc23)cc2[nH]ncc12
5.01	12.6	0.002	2.51		C[C@@H]1CN(Cc2nc(C(=O)Nc3cc(-c4cccc5[nH]ccc45)cc4[nH]ncc34)cs2)C[C@H](C)O1
1.26	10	0.0631	0.398		Cc1cnc(-c2cc(-c3cccc4[nH]ccc34)cc3[nH]ncc23)o1
15.8	> 25.1	0.126	1.26		Cc1ccc(C(=O)Nc2cc(-c3cccc4[nH]ccc34)cc3[nH]ncc23)nc1
3.16	7.94	0.02	3.16		Cc1cc2c(-c3cc(NC(=O)c4csc(C)n4)c4cn[nH]c4c3)cccc2[nH]1
20	> 25.1	1.26	12.6		O=C(Nc1cc(-c2cccc3[nH]ccc23)cc2[nH]ncc12)c1ccccc1
6.31	7.94	0.794	3.98		Cc1ccc(-c2cc(-c3cccc4[nH]ccc34)cc3[nH]ncc23)s1
0.794	12.6	0.126	0.631		Cc1coc(-c2cc(-c3cccc4[nH]ccc34)cc3[nH]ncc23)n1

The next lines start with the compound.

SMILES	IC50 (PIK3CB (Human)) [µM]	IC50 (PIK3CA (human)) [µM]	IC50 (PIK3CD (Human)) [µM]	IC50 (PIK3CG (human)) [µM]	Ki (PIK3CD (Human)) [µM]
C[C@@H]1CN(Cc2cnc(-c3cc(-c4cccc5[nH]ccc45)cc4[nH]ncc34)o2)C[C@H](C)O1	1	15.8	0.00251	2	
Cc1nc(C(=O)Nc2cc(-c3cnc(C)c(NS(C)(=O)=O)c3)cc3[nH]ncc23)cs1	3.98	3.16	0.0316	0.631	
CC(C)N1CCN(Cc2cnc(-c3cc(-c4cccc5[nH]ccc45)cc4[nH]ncc34)o2)CC1	1.58	5.01	> 25.1	6.31	0.000126
Cc1nc(C(=O)Nc2cc(-c3cccc4[nH]cnc34)cc3[nH]ncc23)cs1	> 25.1	> 25.1	0.316	> 25.1	
Cc1nc(C(=O)Nc2cc(-c3ccc(Cl)c(NS(C)(=O)=O)c3)cc3[nH]ncc23)cs1	15.8	15.8	0.631	3.98	
Cc1nc(C(=O)Nc2cc(-c3cnc(Cl)c(N(C)S(=O)(=O)c4ccccc4)c3)cc3[nH]ncc23)cs1	> 25.1	> 25.1	0.501	> 25.1	
Cc1nc(C(=O)Nc2cc(-c3cc(Cl)cc4[nH]ccc34)cc3[nH]ncc23)cs1	1	5.01	0.00794	3.98	
Cc1nc(C(=O)Nc2cc(-c3cnc(Cl)c(CS(=O)(=O)c4ccccc4)c3)cc3[nH]ncc23)cs1	20	25.1	1	> 25.1	
Cc1nc(C(=O)Nc2cc(-c3cccc(O)c3)cc3[nH]ncc23)cs1	7.94	15.8	0.316	12.6	
COc1ncc(-c2cc(NC(=O)c3csc(CN4C[C@@H](C)O[C@@H](C)C4)n3)c3cn[nH]c3c2)cc1NS(C)(=O)=O	2.51	0.398	> 25.1	0.316	0.0001
Cc1nc(C(=O)Nc2cc(-c3cc(F)cc4[nH]ccc34)cc3[nH]ncc23)cs1	3.16	12.6	0.0158	3.16	
Cc1nc(C(=O)Nc2cc(-c3cnc(Cl)c(NS(C)(=O)=O)c3)cc3[nH]ncc23)cs1	1	0.316	0.002	0.0501	
COc1ncc(-c2cc(-c3ncc(CN4C[C@@H](C)O[C@@H](C)C4)o3)c3cn[nH]c3c2)cc1NS(C)(=O)=O	0.631	0.501		0.501	
CC(C)N1CCN(Cc2nnc(-c3cc(-c4cccc5[nH]ccc45)cc4[nH]ncc34)o2)CC1	3.16	12.6	0.00126	10	
COc1cc(-c2cc(NC(=O)c3csc(C)n3)c3cn[nH]c3c2)c2cc[nH]c2c1	2.51	6.31	0.0126	7.94	
CC(C)N1CCN(Cc2coc(-c3cc(-c4cccc5[nH]ccc45)cc4[nH]ncc34)n2)CC1	3.98	12.6	0.00398	15.8	
C[C@@H]1CN(Cc2nnc(-c3cc(-c4cccc5[nH]ccc45)cc4[nH]ncc34)o2)C[C@H](C)O1	1	> 25.1	0.00316	2	
COc1ncc(-c2cc(NC(=O)c3csc(C)n3)c3cn[nH]c3c2)cc1NS(C)(=O)=O	0.794	0.794	0.0126	0.2	
O=C(Nc1cc(-c2cccc3[nH]ccc23)cc2[nH]ncc12)c1csc(CN2CCN3CCC[C@H]3C2)n1	7.94	7.94	0.00398	10	
C[C@@H]1CN(Cc2coc(-c3cc(-c4cccc5[nH]ccc45)cc4[nH]ncc34)n2)C[C@H](C)O1	1.26	12.6	0.00501	2.51	
Cc1nc(C(=O)Nc2cc(-c3cnc(Cl)c(NS(=O)(=O)c4ccccc4)c3)cc3[nH]ncc23)cs1	0.501	0.2	0.00126	0.0251	
Cc1nc(C(=O)Nc2cc(-c3cncc(NS(C)(=O)=O)c3)cc3[nH]ncc23)cs1	> 25.1	7.94	0.0794	0.316	
